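Exposure lasted 48 hours, with cells grown in 96-well plates and compounds tested at five concentrations. The concentration for 50% growth inhibition is given as GI50. TGI: concentration producing complete growth inhibition.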

Common to all, as to test: NCI-60 cell line screen, 48 h
The test system of test [1] is CCRF-CEM leukemia.
Test [2] has as its system HCT-116 colon.
The test system of test [3] is HT29 colon.
For test [4], the system named is K-562 leukemia.
Test [5] deals with KM12 colon.
Test [6] relates to NCI-H522 lung.
Test [7] relates to OVCAR-4 ovarian.
The subject of test [8] is OVCAR-5 ovarian.
The subject of test [9] is OVCAR-8 ovarian.
The test system of test [10] is SNB-75 CNS.

With `O=C(NN1C(=O)CSC12CCCC2)C(O)c1ccccc1` (stereo not drawn), the GI50 in test [1], in [2], in test [3], in [4], in [5] and in test [6] was greater than 100 µM in each case. The GI50 in test [7], in [8], in test [9] and in [10] was greater than 100 µM each time. Also, the TGI in test [1], in [2], in test [3], in test [4], in test [5] and in test [6] was greater than 100 µM in each case. Further, the TGI in [7], in test [8], in [9] and in [10] was greater than 100 µM throughout.

Consider `COc1cc2ncn(-c3cc(OCc4ccccc4C(F)(F)F)c(C(C)=O)s3)c2cc1OC`, for which the GI50 in test [1], in test [2], in [3], in test [4], in [5] and in [6] was greater than 25 µM throughout. Also, the GI50 in [7] was greater than 25 µM; in [8], greater than 25 µM; in test [9], greater than 25 µM; in [10], 19 µM. In addition, the TGI in test [1], in test [2], in test [3], in test [4], in test [5] and in test [6] was greater than 25 µM throughout. For the same molecule, the TGI in test [7], in [8], in test [9] and in [10] was greater than 25 µM each time.

Consider `COC(=O)C(=O)C(C(=O)C=C(C)C)C(=O)C(=O)Nc1nc2ccc([N+](=O)[O-])cc2s1` (stereo not drawn), for which the TGI in test [1] is greater than 100 µM; in test [2], greater than 100 µM; in test [3] it was greater than 100 µM; in test [4] it was greater than 100 µM; in [5], greater than 100 µM; in test [6] it was 78.9 µM. Moreover, the TGI was greater than 100 µM in test [7], greater than 100 µM in test [8], greater than 100 µM in [9] and 63.7 µM in test [10].

On to `Cc1nnc(-c2ccc(C)c(-c3ccc(C(=O)NCc4ccc(Cl)cc4)cc3)c2)o1`, for which the GI50 in test [1] is 14.7 µM; in test [2] it was 12.6 µM; in test [3] it was 19.8 µM; in [4] it was 7.64 µM; in test [5] it was 11 µM; in test [6], 8.49 µM. Moreover, the GI50 in test [7] is 3.41 µM; in test [8], greater than 25 µM; in test [9], greater than 25 µM; in test [10], 7.88 µM. In addition, the TGI in [1], in test [2], in [3], in [4], in test [5] and in test [6] was greater than 25 µM in each case. In addition, the TGI in test [7] was 16.4 µM; in test [8], greater than 25 µM; in [9], greater than 25 µM; in test [10], greater than 25 µM.

For `C=C1C(=O)OC2CC3(C)CCCC(C)C3=CC12` (stereo not drawn), the TGI in [1] worked out at 4.53 µM; in test [2], 15.5 µM; in [3], 14.2 µM; in test [4], 6.61 µM; in test [5], 25.1 µM; in [6], 3.97 µM. Besides, the TGI in test [7] came out at 20.2 µM; in [8] it was 23.4 µM; in [9], 37.3 µM; in [10] it was 11.2 µM.

Regarding `N#Cc1cc(NC(=O)c2ccccc2)c(=O)n2c1[nH]c1ccccc12`, the TGI was greater than 100 µM in [1]; greater than 100 µM in [2]; greater than 100 µM in test [3]; greater than 100 µM in test [4]; greater than 100 µM in [5]; 42 µM in test [6]. In addition, the TGI in [7] was greater than 100 µM; in [9], greater than 100 µM; in [10] it was 68.3 µM.

Regarding `Cc1ccc(/C=C(\C#N)c2ccccc2)cc1`, the TGI in test [1], in test [2], in test [3], in test [4], in test [5] and in [6] was greater than 100 µM each time. Moreover, the TGI in test [7], in test [8], in test [9] and in test [10] was greater than 100 µM each time.

Take `COc1ccc(CNc2cnc3cc(N)cc(N)c3n2)cc1`: the GI50 in test [1] is 24.1 µM; in test [2] it was 19.4 µM; in test [3], 42 µM; in test [4] it was 10.7 µM; in test [5] it was 23.5 µM; in [6], 17.9 µM. The GI50 in [7] was 64.5 µM; in test [8], 18.1 µM; in test [9], 19.7 µM; in test [10], 42.8 µM. The TGI in test [1] is greater than 100 µM; in [2], 40.8 µM; in [3], greater than 100 µM; in [4] it was 29.3 µM; in test [5], 67.6 µM; in [6], 44.1 µM. In addition, the TGI in [7] is greater than 100 µM; in test [8], 43.6 µM; in [9], 39.8 µM; in test [10] it was greater than 100 µM.

Turning to `CC(C)(C)NC/C(=C\c1ccccc1)C(=O)c1ccccc1`, the GI50 in [1] was 0.936 µM; in [2], 1.18 µM; in test [3], 0.9 µM; in [4] it was 2.24 µM; in [5] it was 3.01 µM; in test [6], 0.371 µM. In addition, the GI50 in test [7] was 5.6 µM; in test [8], 2.33 µM; in test [9], 2.82 µM; in test [10], 4.67 µM. Moreover, the TGI in test [1] came to 51.7 µM; in test [2], 2.58 µM; in [3], 3.52 µM; in test [4] it was 12.4 µM; in test [5], 24.4 µM; in test [6], 1.77 µM. Moreover, the TGI in test [7] came out at 19.6 µM; in test [8] it was 4.48 µM; in [9] it was 10.1 µM; in [10], 17.9 µM.

Consider `COC(=O)C(C(=O)C(=O)Nc1ccc(OC)cc1[N+](=O)[O-])c1nc2cc(C)c(C)cc2[nH]c1=O` (stereo not drawn), for which the TGI in [1], in test [2], in [3], in test [4], in test [6] and in test [7] was greater than 100 µM throughout. For the same molecule, the TGI in test [9] and in test [10] was greater than 100 µM in each case.

For the molecule `O=C1C2ON3c4ccccc4C(=O)C3(c3ccccc3)C2C(=O)N1c1ccccc1` (stereo not drawn), the TGI in test [1], in test [2], in test [3], in [4], in test [6] and in test [7] was greater than 100 µM each time. Moreover, the TGI in test [9] and in [10] was greater than 100 µM throughout.

On to `CN(O)C(=S)c1ccccc1`, for which the TGI in test [1] is 4.99 µM; in test [2] it was 5.07 µM; in test [4] it was greater than 100 µM; in [5] it was 31.8 µM; in test [6] it was 0.688 µM; in test [7], 19.6 µM. For the same molecule, the figures for the TGI in test [8], in test [9] and in [10] were greater than 100 µM, 33.2 µM and greater than 100 µM, respectively.

Consider `CCCCCCCCCOC(=S)NCCCCC`, for which the TGI in [1] is 63.4 µM; in test [2] it was 44.8 µM; in test [3], 63.4 µM; in test [4] it was 84.1 µM; in test [6], 46.6 µM; in test [7], greater than 100 µM. Further, the TGI in test [9] and in test [10] was greater than 100 µM in each case.

For the molecule `O=C(Nc1cccnc1)c1ccc2ccc3ccc(C(=O)Nc4cccnc4)nc3c2n1`, the GI50 is 0.169 µM in test [1]; 0.0458 µM in [3]; 0.0526 µM in [4]; 0.0546 µM in [5]; 0.525 µM in [6]; 0.37 µM in test [7]. Besides, the GI50 in test [9] is 0.231 µM; in test [10], 0.273 µM. The TGI in test [1], in test [3], in [4], in test [5], in test [6] and in [7] was greater than 100 µM each time. The TGI in test [8], in [9] and in [10] was greater than 100 µM each time.

As for `O=C1[C@H](Cl)[C@H]2c3cc4ccccc4nc3Oc3ccccc3N12`, the TGI is greater than 100 µM in test [1]; 58 µM in test [2]; greater than 100 µM in test [3]; greater than 100 µM in [5]; 88 µM in test [6]; greater than 100 µM in test [7]. In addition, the TGI was greater than 100 µM in test [8], greater than 100 µM in test [9] and 17.7 µM in test [10].

For the origin of these results see PubChem BioAssay (NCI).
